# According to patent US20220265603A1, “HEPATIC FIBROSIS-INHIBITING AGENT AND BROWN FAT CELL-ACTIVATING AGENT CONTAINING TAXIFOLIN” (NATIONAL HOSPITAL ORGANIZATION, priority 2019, published 2022):
# How the values were obtained:
# [1] = system: F4/80, αSMA, TGF-β1 protein; assay: Liver fibrosis index protein amount, Western blotting; format: in vivo, C57BL/6J mice; details: 12 weeks
# Description: F4/80, αSMA, TGF-β1 protein amount: Western blotting
# [2] = Fasting blood glucose and intraperitoneal glucose tolerance test (IPGTT); format: in vivo, C57BL/6J mice; details: 12 weeks
# Protocol: They were allowed to eat and drink freely, and their food intake and body weight were measured once a week. Fasting blood glucose was measured on the first day of the feeding experiment and once every 4 weeks thereafter (at 4, 8, and 12 weeks after the start of the feeding). At the end of 12 weeks, an intraperitoneal glucose tolerance test (IPGTT) was performed to analyze glucose tolerance. Rectal temperature was also measured at 8 and 12 weeks follow-up (Table 2). glucose tolerance: The area under the blood glucose curve (AUC) was calculated from the blood glucose fluctuation curve from fasting blood glucose level to 120 min after ingestion using the trapezoidal formula.
# liver tissue = assay: Histological analysis of the liver (HE, Azan, SiriusRed, anti-F4/80); format: in vivo, C57BL/6J mice; details: 12 weeks
# Protocol: Liver samples were partially trimmed for tissue observation, washed, immersed in 4% paraformaldehyde, and fixed at 4° C. overnight. The fixed samples were washed, dehydrated in an ascending ethanol series, and paraffin-embedded. (vii) Histological Analysis of the Liver Observation of morphology and fat accumulation: Hematoxylin Eosin (HE) staining Observation of fibrosis: Azan staining, SiriusRed staining, immunohistochemistry (anti-F4/80 antibody) (viii) Analysis of Brown Adipocytes and UCP1 Target tissue: Brown adipose tissue Target: UCP1 gene Means of analysis: real-time RT PCR analysis
# lipid peroxidation = assay: Blood and liver tissue lipid peroxidation (MDA) assay; format: in vivo, C57BL/6J mice; details: 12 weeks
# Description: Blood and liver tissue lipid peroxidation: Lipid Peroxidation (MDA) Colorimetric Assay Kit (BioVision, Inc.)
# [3] = Food ingestion experiment: body weight and food intake; format: in vivo, C57BL/6J mice
# Protocol: C57BL/6J mice were used as experimental animals. They were purchased at the age of 7 weeks from CLEA Japan, Inc. and randomly divided into four groups at the age of 8 weeks after 1 week of acclimation as shown in Table 1 below. They were allowed to eat and drink freely, and their food intake and body weight were measured once a week. Fasting blood glucose was measured on the first day of the feeding experiment and once every 4 weeks thereafter (at 4, 8, and 12 weeks after the start of the feeding). At the end of 12 weeks, an intraperitoneal glucose tolerance test (IPGTT) was performed to analyze glucose tolerance. Rectal temperature was also measured at 8 and 12 weeks follow-up (Table 2).
# [4] = system: type 1 diabetes model rat; details: non-patent document 11; cited from earlier work
# [5] = Blood concentration and biochemical test; format: in vivo, C57BL/6J mice; details: high-fat diet+3% taxifolin vs high-fat diet only, 12 weeks
# Description: insulin concentration: Ultra-sensitive mouse insulin ELISA kit (Morinaga Institute of Biological Science, Inc.) leptin concentration: mouse/rat leptin ELISA kit (Morinaga Institute of Biological Science, Inc.) adiponectin concentration: mouse/rat adiponectin ELISA kit (Otsuka Pharmaceutical Co., Ltd.) Triglyceride: Lab Assay Kit (Wako) TNF-α, IL-1β concentration: ELISA kit (Proteintech) ALT, AST levels: Assay Kit (Funakoshi Co., Ltd.)
# [6] = system: αSMA, PAI1, TGF-β1, Type1 collagen gene expression; assay: Liver fibrosis index gene expression, RT PCR; format: in vivo, C57BL/6J mice; details: high-fat diet+3% taxifolin vs high-fat diet only, 12 weeks
# Description: αSMA, PAI1, TGF-β, 1-type Collagen gene expression: Real-time Quantitative RT PCR
# [7] = system: P38 MAPK, NF-κB p65, JNK phosphorylation; assay: Inflammation induction signal pathway activity in liver, Western blotting; format: in vivo, C57BL/6J mice; details: high-fat diet+3% taxifolin vs high-fat diet only, 12 weeks
# Description: P38 MAPK phosphorylation, NF-κB p65 phosphorylation, JNK phosphorylation: Western blotting
# [8] = system: Alzheimer's disease model mouse; details: cited from earlier work
# [9] = system: F4/80, TNF-α, IL-1β gene expression; assay: Liver tissue inflammation index gene expression, RT PCR; format: in vivo, C57BL/6J mice; details: high-fat diet+3% taxifolin vs high-fat diet only, 12 weeks
# Description: F4/80, TNF-α, IL-1β gene expression: Real-time Quantitative RT PCR
# [10] = system: liver fatty acid synthesis-related genes; assay: Liver fatty acid synthesis-related gene expression, RT PCR; format: in vivo, C57BL/6J mice; details: high-fat diet+3% taxifolin vs high-fat diet only, 12 weeks
# Description: Srebp1c, Lxra, FAS, Scd1, PPARα, Cpt1a gene expression: Real-time Quantitative RT PCR
# [11] = system: fatty acid oxidation-related genes; assay: Liver fatty acid oxidation-related gene expression, RT PCR; format: in vivo, C57BL/6J mice; details: high-fat diet+3% taxifolin vs high-fat diet only, 12 weeks
# Tissue weight at autopsy = format: in vivo, C57BL/6J mice; details: high-fat diet+3% taxifolin vs high-fat diet only, 12 weeks
# Protocol: The last fasting blood glucose was measured 5 days after the day of PGTT, and all blood samples were collected under ether anesthesia, then the mice were euthanized by cervical dislocation, and samples were collected and partially weighed as shown in Table 3 below.
# AMPK = assay: Liver AMPK phosphorylation, Western blotting; format: in vivo, C57BL/6J mice; details: 12 weeks
# Description: (§1) AMPK phosphorylation, ACC phosphorylation: Western blotting
# UCP1 gene = UCP1 gene expression in brown adipose tissue, real-time RT PCR; format: in vivo, C57BL/6J mice; details: high-fat diet+3% taxifolin vs high-fat diet only, 12 weeks
# Description: (vii) Histological Analysis of the Liver Observation of morphology and fat accumulation: Hematoxylin Eosin (HE) staining Observation of fibrosis: Azan staining, SiriusRed staining, immunohistochemistry (anti-F4/80 antibody) (viii) Analysis of Brown Adipocytes and UCP1 Target tissue: Brown adipose tissue Target: UCP1 gene Means of analysis: real-time RT PCR analysis
# [12] = system: acute pancreatitis model mouse; details: non-patent document 10; cited from earlier work
# [13] = Rectal temperature measurement; format: in vivo, C57BL/6J mice; details: normal diet+3% taxifolin group
# Protocol: They were allowed to eat and drink freely, and their food intake and body weight were measured once a week. Fasting blood glucose was measured on the first day of the feeding experiment and once every 4 weeks thereafter (at 4, 8, and 12 weeks after the start of the feeding). At the end of 12 weeks, an intraperitoneal glucose tolerance test (IPGTT) was performed to analyze glucose tolerance. Rectal temperature was also measured at 8 and 12 weeks follow-up (Table 2).
# [14] = system: anti-oxidation enzymes (Mn-SOD, CuZn-SOD, Catalase, GP-x); assay: Anti-oxidation enzyme gene expression, RT PCR; format: in vivo, C57BL/6J mice; details: 12 weeks
# Description: Anti-oxidation enzyme (Mn-SOD, CuZn-SOD, Catalase, GPx) gene expression: Real-time Quantitative RT PCR
# [15] = non-patent document 9; cited from earlier work
# ACC = assay: Liver ACC phosphorylation, Western blotting; format: in vivo, C57BL/6J mice; details: 12 weeks
# Description: as §1
# [16] = high-fat diet+3% taxifolin vs high-fat diet only
# [17] = normal diet+3% taxifolin vs normal diet only
# [18] = liver tissue, high-fat diet+3% taxifolin vs high-fat diet only
smiles,measurement,setting,value
O=C1c2c(O)cc(O)cc2O[C@H](c2ccc(O)c(O)c2)[C@H]1O [taxifolin],F4/80 protein amount,[1]; [16],significantly decreased
same,αSMA protein amount,"[1]; high-fat diet+3% taxifolin vs high-fat diet only, P=0.054",decreasing trend
same,F4/80 protein amount,[1]; [17],decrease was significant
same,TGF-β1 protein amount,[1]; [17],significantly decreased
same,fasting blood glucose (FIG. 6A),[2]; [16],significantly decreased
same,blood glucose area under the curve (AUC),"[2]; high-fat diet+3% taxifolin vs high-fat diet only, IPGTT",significantly decreased
same,blood glucose level at 60 min after start of intraperitoneal glucose tolerance test,[2]; normal diet+3% taxifolin group,significantly lower
same,fasting blood glucose (FIG. 3A),[2]; normal diet+3% taxifolin group,significantly lower
same,fasting blood glucose (FIG. 6A),[2]; [17],significantly decreased
same,"hepatic crown-like structures (hCLS), anti-F4/80 immunohistochemical staining",liver tissue; high-fat diet+3% taxifolin group vs high-fat diet-only group,hardly observed
same,"fat accumulation in liver, HE staining",liver tissue; [16],markedly reduced
same,"amount of collagen stained blue, Azan staining",liver tissue; [18],reduced
same,"amount of collagen stained red, Sirius Red staining",liver tissue; [18],decreased
same,concentration of MDA in the liver,lipid peroxidation; [16],significantly decreased
same,concentration of malondialdehyde (MDA) in blood,lipid peroxidation; [16],significantly decreased
same,concentration of MDA in the liver,lipid peroxidation; [17],significantly decreased
same,body weight,"[3]; high-fat diet+3% taxifolin vs high-fat diet only, 4 weeks",significant difference
same,body weight,"[3]; normal diet+3% taxifolin group vs all other groups, 8 weeks",significant difference in weight loss
same,body weight,"[3]; normal diet+3% taxifolin group vs other groups, 12 weeks",no weight gain was observed
same,body weight,"[3]; normal diet+3% taxifolin group, 6 weeks",significant difference in weight loss
same,blood glucose,[4],blood glucose-improving effects
same,blood ALT levels,[5],significantly decreased
same,blood insulin concentration,[5],significantly decreased
same,blood leptin concentration,[5],significantly decreased
same,insulin resistance index (HOMA-R),[5],significantly decreased
same,liver triglyceride concentration,[5],significantly decreased
same,blood TNF-α concentration,[5]; P=0.076,tendency to decrease
same,blood triglyceride concentration,[5]; P=0.079,decreasing trend
same,blood IL-1β concentration,[5]; P=0.0932,tendency to decrease
same,PAI1 gene expression,[6],significantly decreased
same,TGF-β1 gene expression,[6],significantly decreased
same,αSMA gene expression,[6],significantly decreased
same,Collagen 1 gene expression,[6]; P=0.07,decreasing trend
same,NF-κB p65 phosphorylation,[7],significantly decreased
same,P38 MAPK phosphorylation,[7]; P=0.1045,decreasing trend
same,c-Jun amino-terminal kinase (JNK) phosphorylation,[7]; P=0.1701,decreasing trend
same,amyloid P coagulation,[8],suppression of amyloid P coagulation
same,brain blood flow,[8],improvement of brain blood flow
same,spatial recognition function in the water maze test,[8],improvement of spatial recognition function
same,F4/80 gene expression,[9],significantly decreased
same,IL-1β gene expression,[9],significantly decreased
same,TNF-α gene expression,[9],significantly decreased
same,FAS gene expression,[10],significantly decreased
same,Lxrα gene expression,[10],significantly decreased
same,Scd1 gene expression,[10],significantly decreased
same,Srebp1c gene expression,[10],significantly decreased
same,Cd36 gene expression,[11],significantly decreased
same,brown adipose tissue weight (BAT weight),Tissue weight at autopsy,significantly decreased
same,epididymal fat weight (EPI WAT weight),Tissue weight at autopsy,significantly decreased
same,liver weight,Tissue weight at autopsy,significantly decreased
same,AMPK phosphorylation,AMPK; [16],significantly increased
same,AMPK phosphorylation,AMPK; [17],significantly increased
same,UCP1 gene expression,UCP1 gene,significantly increased
same,anti-oxidation action,[12],anti-oxidation action
same,rectal temperature,[13]; 8 weeks,significantly higher
same,rectal temperature,[13]; 12 weeks,trend was also observed
same,Catalase gene expression,[14]; [16],significantly decreased
same,CuZn-SOD gene expression,[14]; [16],significantly decreased
same,GP-x gene expression,[14]; [16],significantly decreased
same,Mn-SOD gene expression,[14]; [16],significantly decreased
same,Mn-SOD gene expression,[14]; [17],significantly decreased
same,safety for intake,[15],safe for intake
same,ACC phosphorylation,ACC; [16],significantly increased
same,ACC phosphorylation,ACC; [17],significantly increased
